This is an account of results in US9156792B2, “Retinamide and uses thereof” (UNIVERSITY OF MARYLAND, BALTIMORE, priority 2008, dated 2015).

Assay [1] concerns PC-3 prostate cancer cells. Briefly: MTT assay of PC-3 prostate cancer cell growth (proliferation) inhibition. The class given is cell-based, human. The following applies: PC-3 cells; for GI50: Homo sapiens, 144 h, 6 days of treatment, read-out: GI50 Values (concentrations that cause 50% growth inhibition); for potency (growth inhibition) compared with VN/66-1: side by side with VN/66-1. How it is done:
Data are means (SEM<±5%) of at least three independent experiments.
Compounds VNLG/145, VNLG/146, VNLG/147, VNLG/148, VNLG/152 and VNLG/153 were tested and evaluated for their ability to inhibit the growth (proliferation) of PC-3 prostate cancer cells using the MTT [3-(4,5-dimethylthiazol-2-yl)-2,5-diphenyltetrazolium bromide] assay (Gediyal et al. 2005). VN/66-1 of U.S. Pat. No. 7,265,143 was tested side by side for comparison. The GI50 values (concentrations that cause 50% growth inhibition) were determined from dose-response curves. See in FIG. 1 for VNLG/145.
The growth inhibitory experiments with the other compounds gave plots that were similar to FIG. 1.
(Tetrazolium assays rely on reduction of a dye to a coloured formazan, in cell work by metabolically active cells.)

A further assay deals with RARα,β,γ receptors. The following applies: compared with ATRA; cited from earlier work.

For the compound `CC1=C(/C=C/C(C)=C/C=C/C(C)=C/C(=O)Nc2cc(C(F)(F)F)ccc2C(F)(F)F)C(C)(C)CCC1n1ccnc1` (stereo not drawn), in assay [1], the GI50 is 14100 ± 7120 nM.

As to `CC1=C(/C=C/C(C)=C/C=C/C(C)=C/C(=O)Nc2ncnc3[nH]cnc23)C(C)(C)CCC1n1ccnc1` (stereo not drawn), the GI50 in assay [1] is 5620 ± 370 nM.

Consider `CC1=C(/C=C/C(C)=C/C=C/C(C)=C/C(=O)Nc2ccc(O)cc2)C(C)(C)CCC1n1ccnc1` (stereo not drawn), for which the GI50 in assay [1] was 1700 ± 50 nM.

Turning to `CC1=C(/C=C/C(C)=C/C=C/C(C)=C/C(=O)O)C(C)(C)CCC1n1ccnc1` (stereo not drawn) [VN/14-1], the “binding and activation of RARα,β,γ receptors” value with RARα,β,γ receptors was “binds and activates the RARα,β,γ receptors, albeit it is significantly less potent than ATRA”.

For the compound `CC1=C(/C=C/C(C)=C/C=C/C(C)=C/C(=O)NC(C)(C)C)C(C)(C)CCC1n1ccnc1` (stereo not drawn) [VNLG/145], the “potency (growth inhibition) compared with VN/66-1” value in assay [1] is listed as “potencies similar to VN/66-1”.

Take `CC1=C(/C=C/C(C)=C/C=C/C(C)=C/C(=O)Nc2ccccc2O)C(C)(C)CCC1n1ccnc1` (stereo not drawn) [VNLG/147]: in assay [1], the “potency (growth inhibition) compared with VN/66-1” value is recorded as “potencies similar to VN/66-1”.

Take `CC1=C(/C=C/C(C)=C/C=C/C(C)=C/C(=O)Nc2ccc(F)cc2)C(C)(C)CCC1n1ccnc1` (stereo not drawn) [VNLG/152]: in assay [1], the “potency (growth inhibition) compared with VN/66-1” value is given as “potencies better than VN/66-1”.

With `CC1=C(/C=C/C(C)=C/C=C/C(C)=C/C(=O)Nc2ccccc2)C(C)(C)CCC1n1ccnc1` (stereo not drawn) [VNLG/153], in assay [1], the “potency (growth inhibition) compared with VN/66-1” value is “potencies better than VN/66-1”.

As to `CC1=C(/C=C/C(C)=C/C=C/C(C)=C/C(=O)NC(C)(C)C)C(C)(C)CCC1n1ccnc1` (stereo not drawn) [drawing 35], the GI50 in assay [1] was 1860 ± 50 nM.

On to `CC1=C(/C=C/C(C)=C/C=C/C(C)=C/C(=O)Nc2ccccc2O)C(C)(C)CCC1n1ccnc1` (stereo not drawn) [drawing 37], for which the GI50 in assay [1] turned out to be 1700 ± 70 nM.

Take `CC1=C(/C=C/C(C)=C/C=C/C(C)=C/C(=O)Nc2ccc(F)cc2)C(C)(C)CCC1n1ccnc1` (stereo not drawn) [drawing 39]: the GI50 in assay [1] amounted to 610 ± 110 nM.

For the compound `CC1=C(/C=C/C(C)=C/C=C/C(C)=C/C(=O)Nc2ccccc2)C(C)(C)CCC1n1ccnc1` (stereo not drawn) [drawing 40], the GI50 in assay [1] worked out at 1170 ± 50 nM.
